Experimental findings from PMC10541198, “Specific quinone reductase 2 inhibitors reduce metabolic burden and reverse Alzheimer’s disease phenotype in mice” (The Journal of Clinical Investigation, 2023) are described below.

“And” between values parts separate entries of the source, which are not always exact repeats. Identical values can stand only once.

This test has as its system Amyloid β. Nature of the test: IHC of amyloid β in 5xFAD brain sections. The test is classed as in vivo, mouse. As to conditions: for Amyloid β normalized volume (individual mice): CA1, 5xFAD 1 month; for Figure 9B, IHC signal / Sup. Fig. 6-1B, IHC signal: individual animals; for Amyloid β vs vehicle: cortex, 5xFAD 1 month. The text has this: Following the behavioral experiments, we assessed brain pathologies associated with AD present in the 5xFAD mice ([37]). Therefore, 5 days following the last behavioral experiment, and 1 month after the start of YB-537 consumption, mice were sacrificed, and coronal brain sections were used for IHC. Since the CA1 region of the hippocampus is affected during AD pathogenesis ([37]), and this brain region is involved in the behavioral paradigms used here, we acquired images of CA1. This was done with an Olympus IX83 confocal microscope using the same settings, antibodies, and exposures in all mice. Images were analyzed using Imaris (Bitplane; see methods). For each mouse, 3 coronal sections were used per antibody. In each section, the same region of CA1 was acquired, using the same image frame size and resolution, at all possible depths of the section — using a Z-stack of the whole section — to allow measurement of the fluorescent antibody marker volume, which was normalized to the brain volume from which it was taken. First, we measured oxidative stress, as indicated by 4-HNE ([38]) (Abcam, ab48506).
Perfused and fixed brain slices were blocked with 10% normal donkey serum (DNS) and 0.2% triton (Sigma-Aldrich) in PBS. Antibodies, including 4-HNE (AbCam, ab48506), Iba1 (AbCam, ab5076), AT-8 (Thermo, MN1020), Amyloid β (AbCam, ab201060), diluted in PBS with 10% DNS, were incubated at 4°C overnight. Secondary antibodies including donkey-anti-goat Alexa Fluor 568 (AbCam, ab175704), donkey-anti-mouse Cy 5 (Jackson Immuno Research, 715-175-151), and donkey-anti-rabbit DyLight 488 (AbCam, ab98488) all diluted 1:500 in PBS with 1% BSA, were applied to the slices at RT for 2 hours the next day. Slices were mounted onto glass slides using DAPI containing Vectashield (H-1200). Images were taken using a confocal microscope (Olympus IX83). Three slices were used per mouse per antibody. Tiling images of the dorsal CA1 and cortex (Bregma: –1.58mm to –2.30mm) were taken using ×20 objective, acquiring a Z-stack of the whole section. Analysis of the images was done blind by an experimenter unaware of the experimental conditions or details, using Imaris (Bitplane) software. A surface reconstruction module was used to extract the data as volumes of the used markers (4-HNE, phospho-tau, amyloid β, GFAP, and Iba1). Marker volume and intensity were normalized to the corresponding brain volume. The normalized value was averaged for each triplicate and presented here. […]
Brains were then briefly removed and placed in chilled, 4% PFA for 48 h, f oll owe d by immersion in 30% sucrose in 0.1 M PBS for a furt her 48 h. Bra i ns wer e t h e n stored at -80°C, until t he y were sliced into 40µm coronal sections usinga Lei ca CM 1950cryostat. Sli ces were then washed x3 in PBS and bl oc ke d for 1 h at RT using 10% normal donkey serum (DNS) and 0.2% triton (Sigma-Aldrich) in PBS. Antibodies, including 4- HNE (1:500, AbCam, ab48506), Iba1 (1:2,000, AbCam, ab5076), GFAP (Abcam, ab53554), phospho- tau (1:1,000, Thermo, MN1020) and amyloid β (1:1,000, AbCam, ab201060) diluted in PBS with 10% DNS were incubated at 4°C overnight. The next day, the slices were washed x3 times in PBS, and secondary antibodies including donkey anti goat A l e x a Fluor 568 (AbCam, ab175704), donkey anti-mouse Cy 5 (Jackson Immuno Research, 715- 175- 151) and donkey anti-rabbit DyLight 488 (AbCam, ab98488) all diluted 1:500 in PBS with 1% BSA, were applied to the slices at RT for 2 h. Following the incubation, the slices were washed x3 times in PBS, mounted onto gl ass slides, were uniformly covered in DAPI containing Vectashield (H-1200) and coverslips were a dde d. […]

`Cc1ccc(-c2cn3cccc(C)c3n2)cc1S(=O)(=O)N1CCNCC1` [YB-537]: the “Amyloid β normalized volume (individual mice)” value is, setting by setting: (Females) 0.0438 and 0.0503 and 0.0630 and 0.0517 and 0.0415 and 0.0377 and 0.0224; (Males) 0.0456 and 0.0411 and 0.0568 and 0.0482 and 0.0215 and 0.0315 and 0.0453 and 0.0211 and 0.0327; (Males + Females) 0.0438 and 0.0503 and 0.0630 and 0.0315 and 0.0453 and 0.0211 and 0.0327 and 0.0456 and 0.0411 and 0.0568 and 0.0482 and 0.0215 and 0.0517 and 0.0415 and 0.0377 and 0.0224. In addition, the “Figure 9B, IHC signal” value was 0.0014 and 0.0009 and 0.0012 and 0.0011 and 0.0040 and 0.0050 and 0.0062 and 0.0018 and 0.0015 (Cortex); 0.0022 and 0.0020 and 0.0026 and 0.0016 and 0.0029 and 0.0072 and 0.0052 and 0.0013 (Hippocampus). Also, the “Sup. Fig. 6-1B, IHC signal” value (Females) was 0.0046 and 0.0222 and 0.0056 and 0.0307 and 0.0209 and 0.0044 and 0.0060; the “Sup. Fig. 6-1B, IHC signal” value (Males) is 0.0033 and 0.0053 and 0.0092 and 0.0140 and 0.0194 and 0.0050 and 0.0040 and 0.0079 and 0.0183. Further, the “Amyloid β vs vehicle” value is “unchanged” (females), “insignificantly reduced” (males) and “not significantly reduced” (total population).
